In ChEMBL document CHEMBL6127154, “Pursuing Polypharmacology: Benzothiopyranoindoles as G-Quadruplex Stabilizers and Topoisomerase I Inhibitors for Effective Anticancer Strategies” (ACS Med Chem Lett, 2024):
Activity calls are given as the source filed them. No cut-off for these calls is given here.

Key:
Hs-578T = experiment: Antiproliferative activity against human Hs-578T cells assessed as growth inhibition incubated for 48 hrs by SRB assay; type: functional
A549 = experiment: Antiproliferative activity against human A549 cells assessed as growth inhibition incubated for 48 hrs by SRB assay; type: functional
SF-268 = experiment: Antiproliferative activity against human SF-268 cells assessed as growth inhibition incubated for 48 hrs by SRB assay; type: functional
T47D = experiment: Antiproliferative activity against human T47D cells assessed as growth inhibition incubated for 48 hrs by SRB assay; type: functional
DU-145 = experiment: Antiproliferative activity against human DU-145 cells assessed as growth inhibition incubated for 48 hrs by SRB assay; type: functional
UACC-257 = experiment: Antiproliferative activity against human UACC-257 cells assessed as growth inhibition incubated for 48 hrs by SRB assay; type: functional
OVCAR-8 = experiment: Antiproliferative activity against human OVCAR-8 cells assessed as growth inhibition incubated for 48 hrs by SRB assay; type: functional
Quadruplex DNA [1] = experiment: Stabilization of human telomeric 23 hybrid G4 quadruplex DNA incubated for 10 mins by circular dichroism spectroscopic analysis; type: nucleic-acid assay
RPMI-8226 = experiment: Antiproliferative activity against human RPMI-8226 cells assessed as growth inhibition incubated for 48 hrs by SRB assay; type: functional
Malme-3M = experiment: Antiproliferative activity against human Malme-3M cells assessed as growth inhibition incubated for 48 hrs by SRB assay; type: functional
Homo sapiens = species on record: Homo sapiens; experiment: Inhibition of human Topoisomerase II assessed as relaxation of supercoiled plasmid pBR322 DNA at 2.5 uM incubated for 1 hr by ethidium bromide staining based agarose gel electrophoresis
SK-MEL-5 = experiment: Antiproliferative activity against human SK-MEL-5 cells assessed as growth inhibition incubated for 48 hrs by SRB assay; type: functional
UACC-62 = experiment: Antiproliferative activity against human UACC-62 cells assessed as growth inhibition incubated for 48 hrs by SRB assay; type: functional
SF-539 = experiment: Antiproliferative activity against human SF-539 cells assessed as growth inhibition incubated for 48 hrs by SRB assay; type: functional
CCRF-CEM = experiment: Antiproliferative activity against human CCRF-CEM cells assessed as growth inhibition incubated for 48 hrs by SRB assay; type: functional
IGROV-1 = experiment: Antiproliferative activity against human IGROV-1 cells assessed as growth inhibition incubated for 48 hrs by SRB assay; type: functional
NCI-H226 = experiment: Antiproliferative activity against human NCI-H226 cells assessed as growth inhibition incubated for 48 hrs by SRB assay; type: functional
NCI/ADR-RES = experiment: Antiproliferative activity against human NCI/ADR-RES cells assessed as growth inhibition incubated for 48 hrs by SRB assay; type: functional
CAKI-1 = experiment: Antiproliferative activity against human CAKI-1 cells assessed as growth inhibition incubated for 48 hrs by SRB assay; type: functional
BT-549 = experiment: Antiproliferative activity against human BT-549 cells assessed as growth inhibition incubated for 48 hrs by SRB assay; type: functional
HCT-116 [2] = experiment: Induction of DNA damage in human HCT-116 cells assessed as increase in gammaH2AX level incubated for 24 hrs by immunofluorescence staining based analysis; type: functional, cell-based
OVCAR-5 = experiment: Antiproliferative activity against human OVCAR-5 cells assessed as growth inhibition incubated for 48 hrs by SRB assay; type: functional
SF-295 = experiment: Antiproliferative activity against human SF-295 cells assessed as growth inhibition incubated for 48 hrs by SRB assay; type: functional
[3] = target: DNA topoisomerase 1 (Homo sapiens) (UniProt P11387); experiment: Inhibition of human Topoisomerase 1 assessed as relaxation of supercoiled plasmid pBR322 DNA at 2.5 uM incubated for 1 hr by ethidium bromide staining based agarose gel electrophoresis
Quadruplex DNA [4] = experiment: Thermal stabilization of human Tel23-p G4 quadruplex DNA assessed as change in melting temperature (deltaT1/2) incubated for 10 mins by circular dichroism spectroscopic analysis (reference value: 68.2 +/- 0.1 degreeC); type: nucleic-acid assay
OVCAR-3 = experiment: Antiproliferative activity against human OVCAR-3 cells assessed as growth inhibition incubated for 48 hrs by SRB assay; type: functional
HCT-116 [5] = experiment: Induction of DNA damage in human HCT-116 cells assessed as increase in 53BP1 foci positive cells incubated for 24 hrs by immunofluorescence staining based analysis; type: functional, cell-based
OVCAR-4 = experiment: Antiproliferative activity against human OVCAR-4 cells assessed as growth inhibition incubated for 48 hrs by SRB assay; type: functional
Quadruplex DNA [6] = experiment: Thermal stabilization of human c-Kit2 G4 quadruplex DNA assessed as change in melting temperature (deltaT1/2) incubated for 10 mins by circular dichroism spectroscopic analysis (reference value: 62.4 +/-0.1 degreeC); type: nucleic-acid assay
HCT-15 = experiment: Antiproliferative activity against human HCT-15 cells assessed as growth inhibition incubated for 48 hrs by SRB assay; type: functional
TK-10 = experiment: Antiproliferative activity against human TK-10 cells assessed as growth inhibition incubated for 48 hrs by SRB assay; type: functional
NCI-H322M = experiment: Antiproliferative activity against human NCI-H322M cells assessed as growth inhibition incubated for 48 hrs by SRB assay; type: functional
SK-MEL-28 = experiment: Antiproliferative activity against human SK-MEL-28 cells assessed as growth inhibition incubated for 48 hrs by SRB assay; type: functional
EKVX = experiment: Antiproliferative activity against human EKVX cells assessed as growth inhibition incubated for 48 hrs by SRB assay; type: functional
K562 = experiment: Antiproliferative activity against human K562 cells assessed as growth inhibition incubated for 48 hrs by SRB assay; type: functional
M14 = experiment: Antiproliferative activity against human M14 cells assessed as growth inhibition incubated for 48 hrs by SRB assay; type: functional
HL-60 = experiment: Antiproliferative activity against human HL-60 cells assessed as growth inhibition incubated for 48 hrs by SRB assay; type: functional
SR = experiment: Antiproliferative activity against human SR cells assessed as growth inhibition incubated for 48 hrs by SRB assay; type: functional
Quadruplex DNA [7] = experiment: Thermal stabilization of human Tel23-hy G4 quadruplex DNA assessed as change in melting temperature (deltaT1/2) incubated for 10 mins by circular dichroism spectroscopic analysis (reference value: 48 +/- 0.1 degreeC); type: nucleic-acid assay
NCI-H460 = experiment: Antiproliferative activity against human NCI-H460 cells assessed as growth inhibition incubated for 48 hrs by SRB assay; type: functional
786-0 = experiment: Antiproliferative activity against human 786-0 cells assessed as growth inhibition incubated for 48 hrs by SRB assay; type: functional
UO-31 = experiment: Antiproliferative activity against human UO-31 cells assessed as growth inhibition incubated for 48 hrs by SRB assay; type: functional
KM12 = experiment: Antiproliferative activity against human KM12 cells assessed as growth inhibition incubated for 48 hrs by SRB assay; type: functional
PC-3 = experiment: Antiproliferative activity against human PC-3 cells assessed as growth inhibition incubated for 48 hrs by SRB assay; type: functional
SK-OV-3 = experiment: Antiproliferative activity against human SK-OV-3 cells assessed as growth inhibition incubated for 48 hrs by SRB assay; type: functional
NCI-H23 = experiment: Antiproliferative activity against human NCI-H23 cells assessed as growth inhibition incubated for 48 hrs by SRB assay; type: functional

Chain of DNA topoisomerase 1 (Homo sapiens) (P11387 whole entry): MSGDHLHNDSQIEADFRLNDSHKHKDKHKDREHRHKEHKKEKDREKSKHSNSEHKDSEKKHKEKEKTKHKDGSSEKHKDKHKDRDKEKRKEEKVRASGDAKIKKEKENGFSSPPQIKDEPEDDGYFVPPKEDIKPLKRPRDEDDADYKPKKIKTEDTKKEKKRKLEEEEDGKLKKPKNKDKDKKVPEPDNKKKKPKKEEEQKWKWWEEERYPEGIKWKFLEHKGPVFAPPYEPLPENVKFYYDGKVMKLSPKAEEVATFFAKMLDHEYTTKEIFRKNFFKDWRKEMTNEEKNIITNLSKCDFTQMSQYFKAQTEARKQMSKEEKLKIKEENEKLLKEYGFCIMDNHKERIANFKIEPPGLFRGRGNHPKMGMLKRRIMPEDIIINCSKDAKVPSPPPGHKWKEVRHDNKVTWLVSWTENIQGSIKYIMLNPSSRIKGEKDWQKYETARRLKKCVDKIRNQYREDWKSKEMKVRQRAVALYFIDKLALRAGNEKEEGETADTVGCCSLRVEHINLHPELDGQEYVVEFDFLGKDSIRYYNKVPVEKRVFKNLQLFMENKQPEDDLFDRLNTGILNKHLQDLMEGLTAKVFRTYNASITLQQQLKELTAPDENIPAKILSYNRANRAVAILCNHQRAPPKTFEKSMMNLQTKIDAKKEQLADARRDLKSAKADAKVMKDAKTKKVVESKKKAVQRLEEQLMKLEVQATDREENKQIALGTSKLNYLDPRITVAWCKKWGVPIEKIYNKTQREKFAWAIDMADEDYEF

SMILES: CCN(CC)CCn1c2ccc(O)cc2c2sc3cc(OC)ccc3c(=O)c21
- GI (Hs-578T): 1.95 µM
- GI (A549): 1.63 µM
- GI (SF-268): 7.34 µM
- GI (T47D): 14.2 µM
- GI (DU-145): 1.71 µM
- GI (UACC-257): 2.1 µM
- GI (OVCAR-8): 2.1 µM
- Activity (Quadruplex DNA [1]): Active
- GI (RPMI-8226): 1.95 µM
- GI (Malme-3M): 1.87 µM
- inhibition (Homo sapiens): Active
- GI (SK-MEL-5): 1.74 µM
- GI (UACC-62): 1.89 µM
- GI (SF-539): 1.76 µM
- GI (CCRF-CEM): 1.09 µM
- GI (IGROV-1): 1.59 µM
- GI (NCI-H226): 10.4 µM
- GI (NCI/ADR-RES): 1.23 µM
- GI (CAKI-1): 3.73 µM
- GI (BT-549): 6.08 µM
- Activity (HCT-116 [2]): Active
- GI (OVCAR-5): 2.22 µM
- GI (SF-295): 5.35 µM
- inhibition [3]: Active
- ΔTm (Quadruplex DNA [4]): > 20 °C
- GI (OVCAR-3): 2.19 µM
- Activity (HCT-116 [5]): Active
- GI (OVCAR-4): 1.81 µM
- ΔTm (Quadruplex DNA [6]): > 20 °C
- GI (HCT-15): 1.2 µM
- GI (TK-10): 9.05 µM
- GI (NCI-H322M): 6.89 µM
- GI (SK-MEL-28): 1.8 µM
- GI (EKVX): 1.67 µM
- GI (K562): 1.24 µM
- GI (M14): 1.64 µM
- GI (HL-60): 1.72 µM
- GI (SR): 1.11 µM
- ΔTm (Quadruplex DNA [7]): 9.6 °C
- GI (NCI-H460): 1.22 µM
- GI (786-0): 1.39 µM
- GI (UO-31): 1.9 µM
- GI (KM12): 1.84 µM
- GI (PC-3): 1.82 µM
- GI (SK-OV-3): 13.4 µM
- GI (NCI-H23): 1.56 µM

SMILES: CCN(CC)CCn1c2ccc(OC)cc2c2sc3cc(OC)ccc3c(=O)c21
- GI (Hs-578T): 1.96 µM
- GI (A549): 1.59 µM
- GI (SF-268): 1.87 µM
- GI (T47D): 2 µM
- GI (DU-145): 1.67 µM
- GI (UACC-257): 1.92 µM
- GI (OVCAR-8): 1.93 µM
- Activity (Quadruplex DNA [1]): Active
- GI (RPMI-8226): 1.47 µM
- GI (Malme-3M): 1.59 µM
- inhibition (Homo sapiens): Active
- GI (SK-MEL-5): 1.74 µM
- GI (UACC-62): 1.8 µM
- GI (SF-539): 1.66 µM
- GI (CCRF-CEM): 1.04 µM
- GI (IGROV-1): 1.53 µM
- GI (NCI-H226): 2.46 µM
- GI (NCI/ADR-RES): 1.24 µM
- GI (CAKI-1): 1.65 µM
- GI (BT-549): 2.24 µM
- Activity (HCT-116 [2]): Active
- GI (OVCAR-5): 1.92 µM
- GI (SF-295): 1.82 µM
- inhibition [3]: Active
- ΔTm (Quadruplex DNA [4]): > 20 °C
- GI (OVCAR-3): 2.12 µM
- Activity (HCT-116 [5]): Active
- GI (OVCAR-4): 1.84 µM
- ΔTm (Quadruplex DNA [6]): > 20 °C
- GI (HCT-15): 0.861 µM
- GI (TK-10): 2.33 µM
- GI (NCI-H322M): 1.59 µM
- GI (SK-MEL-28): 1.7 µM
- GI (EKVX): 1.6 µM
- GI (K562): 0.728 µM
- GI (M14): 1.64 µM
- GI (HL-60): 1.77 µM
- GI (SR): 0.704 µM
- ΔTm (Quadruplex DNA [7]): 11 °C
- GI (NCI-H460): 1.08 µM
- GI (786-0): 1.59 µM
- GI (UO-31): 1.35 µM
- GI (KM12): 2 µM
- GI (PC-3): 1.34 µM
- GI (SK-OV-3): 3.07 µM
- GI (NCI-H23): 1.9 µM
